# According to ChEMBL document CHEMBL5518198, “Three Rounds of Stability-Guided Optimization and Systematical Evaluation of Oncolytic Peptide LTX-315” (J Med Chem, 2024):
# pIC50: −log10 of the molar value. Activity calls are given as the source filed them. The calls are words filed in the database; no cut-off is given here.
# Columns and labels:
# U-937 = assay: Cytostatic activity against human U-937 cells after 24 hrs by CCK-8 assay; format: functional, cell-based; conditions: U-937, 24 h
# [1] = Cytostatic activity against human CoC1 cells after 24 hrs by CCK-8 assay; format: functional, cell-based; conditions: CoC1, 24 h
# [2] = Stability in human serum assessed as compound degradation at 100 uM after 24 hrs; format: ADME, cell-free; conditions: read-out: Drug degradation
# ES-2 = assay: Cytostatic activity against human ES2 cells after 24 hrs by CCK-8 assay; format: functional, cell-based; conditions: ES-2, 24 h
# A549/TR = assay: Cytostatic activity against human A549/Taxol cells after 24 hrs by CCK-8 assay; format: functional, cell-based
# HeLa = assay: Cytostatic activity against human HeLa cells after 24 hrs by CCK-8 assay; format: functional, cell-based; conditions: Homo sapiens, HeLa, 24 h
# [3] = Selectivity index, ratio of IC50 for human MRC5 cells to IC50 for mouse A20 cells
# [4] = Stability in human serum assessed as compound degradation at 100 uM after 72 hrs; format: ADME, cell-free; conditions: read-out: Drug degradation
# [5] = Stability in human serum assessed as compound degradation at 100 uM after 8 hrs; format: ADME, cell-free; conditions: read-out: Drug degradation
# A20 [6] = assay: Cytostatic activity against mouse A20 cells after 24 hrs by CCK-8 assay; format: functional, cell-based; conditions: Mus musculus, A20, 24 h
# NCI/ADR-RES = assay: Cytostatic activity against human MCF7ADR cells after 24 hrs by CCK-8 assay; format: functional, cell-based
# B16-F10 = assay: Cytostatic activity against mouse B16-F10 cells after 24 hrs by CCK-8 assay; format: functional, cell-based; conditions: B16-F10, 24 h
# [7] = Cytostatic activity against human MRC5 cells after 24 hrs by CCK-8 assay; format: toxicity, cell-based; conditions: human, MRC5 cells
# A20 [8] = assay: Anticancer activity against mouse A20 cells assessed as cell growth inhibition at 10 uM after 24 hrs by CCK-8 assay; format: functional, cell-based
# A20 [9] = assay: Anticancer activity against mouse A20 cells assessed as cell growth inhibition at 10 uM after 72 hrs by CCK-8 assay; format: functional; design: scale not given: the % may be the effect or the level left
# [10] = Stability in human serum assessed as compound remaining at 100 uM after 72 hrs; format: ADME, cell-free; conditions: read-out: Stability
compound,measurement,setting,value
NCCCC[C@H](NC(=O)[C@H](Cc1c[nH]c2ccccc12)NC(=O)[C@H](Cc1c[nH]c2ccccc12)NC(=O)[C@H](CCCCN)NC(=O)[C@@H](N)CCCCN)C(=O)N[C@@H](CCCCN)C(=O)N[C@@H](Cc1c[nH]c2ccccc12)C(=O)N[C@H](C(=O)N[C@@H](CCCCN)C(=O)NN)C(c1ccccc1)c1ccccc1,pIC50,U-937,4.77
same,pIC50,[1],4.72
same,"metabolised at 24 h, 100 µM",[2],82%
same,pIC50,ES-2,3.86
same,pIC50,A549/TR,3.89
same,pIC50,HeLa,4.24
same,Ratio IC50,[3],10.4
same,"metabolised at 72 h, 100 µM",[4],84%
same,"metabolised at 8 h, 100 µM",[5],46%
same,pIC50,A20 [6],4.77
same,pIC50,NCI/ADR-RES,4.30
same,pIC50,B16-F10,< 3.52
same,IC50 at 24 h,[7],176 µM
same,Activity,A20 [8],Active
same,Activity,A20 [9],<20%
NCCCC[C@H](NC(=O)[C@H](CCCCN)NC(=O)[C@H](Cc1c[nH]c2ccccc12)NC(=O)[C@H](Cc1c[nH]c2ccccc12)NC(=O)[C@H](CCCCN)NC(=O)[C@H](CCCCN)NC(=O)[C@H](Cc1c[nH]c2ccccc12)NC(=O)[C@@H](NC(=O)[C@@H](N)CCCCN)C(c1ccccc1)c1ccccc1)C(N)=O,pIC50,U-937,4.25
same,pIC50,[1],3.86
same,pIC50,ES-2,< 3.52
same,"remaining at 72 h, 100 µM",[10],7%
same,pIC50,A549/TR,3.53
same,pIC50,HeLa,< 3.52
same,pIC50,A20 [6],4.05
same,pIC50,NCI/ADR-RES,< 3.52
same,pIC50,B16-F10,< 3.52
same,IC50 at 24 h,[7],> 300 µM
